Data set [1] can be described thus: Cytotoxicity SRB assay, HeLa. The note with it: human. The method, then: (§1) All of the compounds were also evaluated for their cytotoxic properties against six human cancer cell lines (lung carcinoma epithelian (A549), colon carcinoma (HCT-116), pancreatic carcinoma (BXPC-3), breast cancer (MCF-7), cervical epithelium (HeLa), and erythroleukemic (K562)) and a human umbilical vein endothelial cell (HUVEC) line (Table 2).
(§2) The cytotoxicity against HCT-116, BXPC-3, HeLa, MCF-7, A-549, and HUVEC cell lines was evaluated using the SRB method. The cytotoxicity against K562 and Vero cell lines was evaluated using the MTT method. Adriamycin was used as a positive control. All cells were cultivated in T-75 flasks containing 10% Fetal Bovine Serum (FBS), Dulbeco’s Modified Eagle Medium (DMEM) with 2 mM L-glutamine, and 1% penicillin-streptomycin at 37 °C in a humidified atmosphere with 5% CO2. For SRB assay, cells in their log phase of growth were seeded into 96 well micro plates (4 × 10^4 cells per well) and followed by treating with test samples at 10 μM or DMSO. After incubation at 37 °C for 72 h, the cells were fixed with the cold 20% (w/v) TCA for 2 h and stained with Sulforhodamine B (SRB) dye for 0.5 h. The protein-bound dye is dissolved in Tris base solution for OD determination at 540 nm on an ELISA Plate Reader. For MTT assay, cells (5 × 10^3 cells per well) were plated in 96 well micro plates. After cell attachment overnight, new medium containing test compounds or DMSO was added. The plate was incubated for 48 h at 37 °C and incubated with 3-(4,5-dimethylthiazol-2-yl)-2,5-diphenyltetrazolium bromide (MTT) for additional 2–4 hours. The assay plate was then read at 490 nm on an ELISA Plate Reader. The data were obtained from experiments carried out in triplicate.

Data set [2] can be described thus: Cytotoxicity against the panel of six human cancer cell lines and HUVEC. The method, then:
as §1, §2

A short description of data set [3]: Cytotoxicity SRB assay, BXPC-3. As to conditions: human. As to the method:
as §1, §2
(In general: The SRB assay estimates cell density from bound dye.)

Data set [4] is described as follows: Cytotoxicity MTT assay, K562. As to conditions: human. As to the method: as §1, §2
(In general: Tetrazolium assays rely on reduction of a dye to a coloured formazan, in cell work by metabolically active cells.)

A short description of data set [5]: Cytotoxicity SRB assay, HUVEC. The note with it: human. The method, then: as §1, §2
Data set [6] can be described thus: Toxicity against Vero cells (MTT). In kind it is cell-based, African green monkey. The note with it: African green monkey, MTT, 48 h. The method, then: It should be emphasized that toxicity is a major concern of drug discovery and development. The above active compounds were evaluated for in vitro toxicity against a mammalian kidney cell line (Vero). The selectivity index (SI) was used as the evaluation parameter of drug potential of the test samples by comparing the toxicity on the Vero cell line (CC50) and the selective inhibitory effect on P. falciparum, L. donovani or T. cruzi (IC50) calculated here as CC50/IC50.
Adriamycin was used as a positive control.

The nature of data set [7]: Cytotoxicity SRB assay, A-549. The note with it: human. As to the method: as §1, §2
Another data set has as its system Leishmania donovani. Kind of data set: Antileishmanial assay (PicoGreen). It is filed as cell-based. The note with it: in vitro, read-out: Leishmania donovani IC50. The method, then:
The anti-leishmania activity was evaluated following the protocol described by Calderon et al.[39], using the fluorescent DNA intercalator PicoGreen (Invitrogen, USA). The species responsible for visceral leishmaniasis, L. donovani, was used for the assays.

The nature of data set [8]: Cytotoxicity SRB assay, MCF-7. As to conditions: human. As to the method: as §1, §2
The test system of a further data set is Plasmodium falciparum. Kind of data set: Antiplasmodial assay (PicoGreen growth inhibition in infected human erythrocytes). In kind it is cell-based. As to conditions: Erythrocyte, in vitro, W2 and 3D7 strains cultured, strain of the values not stated, read-out: Plasmodium falciparum IC50. The method, then: Activity against the causative agent of malaria was performed by culturing human erythrocytes and infecting them with P. falciparum, as described by Trager and Jensen[36]. Briefly, the W2 (Chloroquine resistant) and 3D7 (Chloroquine sensitive) strains of P. falciparum were cultured in RPMI 1640 medium (Sigma-Aldrich, USA) supplemented with 10% human serum (from O+ blood) at a hematocrit of 2% erythrocytes (O+) at 37 °C in a gas mixture of 5% CO2, 5% O2, and 90% N2. Parasites were synchronized by a temperature cycling technique as described by Almanza et al.[37]

Data set [9] in a line: Cytotoxicity SRB assay, HCT-116. As to conditions: human. As to the method:
as §1, §2

The test system of another data set is Trypanosoma cruzi. Kind of data set: Antitrypanosomal assay (beta-galactosidase reporter, intracellular amastigotes in Vero cells). Note: key: I: Inactive. In kind it is cell-based. The note with it: Tulahuen clone C4, intracellular amastigotes in Vero cells, 120 h. The method, then: Briefly, the expression of the reporter gene for beta-galactosidase (β-Gal) in the Tulahuen clone C4 of T. cruzi is assessed by colorimetry at 570 nm, which correlates with the parasite growth. Assays were performed on the intracellular amastigote form of the parasite infecting African green monkey kidney (Vero) cells, incubated for 120 h at 37 °C with 5% CO2.

[10] abbreviates: HUVEC (umbilical vein endothelial cells).
[11] abbreviates: Vero cells (mammalian kidney cell line).

A value given as a limit tells only on which side of the number the result lay.

`COc1cc(O)c2c(c1)/C=C/C[C@@H]1OC(C)(C)O[C@@H]1C(=O)/C=C/C[C@H](C)OC2=O` [Compound 20]: the IC50 at 72 h was 7.21 µM in data set [1]; above 10 µM in data set [3]; 9.78 µM in data set [5]; above 10 µM in data set [7]; above 10 µM in data set [8]; above 10 µM in data set [9]. For the same compound, the IC50 in data set [2] was below 10 µM; in the data set with Leishmania donovani, 6.46 µM; with Plasmodium falciparum, above 30.7 µM. Further, the IC50 at 48 h in [4] was above 10 µM. For the same compound, the CC50 at 48 h in data set [6] was below 1 µM.

Take `COc1cc2c(c(OC(C)=O)c1)C(=O)O[C@@H](C)C/C=C/C(=O)[C@@H](OC(C)=O)[C@@H](OC(C)=O)C/C=C/2` [Compound 21]: the IC50 at 72 h in [1] (HeLa cervical epithelium cells) is 6.95 µM; in data set [3] (BXPC-3 pancreatic carcinoma cells) it was above 10 µM; in data set [5] (setting [10]), 4.52 µM; in [7] (A-549 lung carcinoma cells) it was above 10 µM; in data set [8] (MCF-7 breast cancer cells) it was above 10 µM; in data set [9] (HCT-116 colon carcinoma cells), above 10 µM. The IC50 in [2] was below 10 µM; with Leishmania donovani, 3.69 µM; in the data set with Plasmodium falciparum, above 30.7 µM. This compound also had an IC50 at 48 h in data set [4] (K562 erythroleukemic cells) above 10 µM. This compound yielded a half-maximal cytotoxic concentration (CC50) at 48 h in [6] (setting [11]) of 5.8 µM.

For `COc1cc(O)c2c(c1)/C=C/C[C@H]1OC(C)(C)O[C@@H]1C(=O)/C=C/C[C@H](C)OC2=O` [Compound 23], the IC50 at 72 h in [1] was determined as 6.59 µM; in data set [5] it was 7.51 µM; in data set [7], 9.75 µM; in data set [9] it was 3.51 µM. Besides, the IC50 is below 10 µM in [2], above 15.7 µM in the data set on Leishmania donovani and above 30.7 µM in the data set with Plasmodium falciparum. Also, in the data set with Trypanosoma cruzi, the “Trypanosoma cruzi IC50” value is reported as “I”.

As to `COc1cc2c(c(OC(C)=O)c1)C(=O)O[C@@H](C)C/C=C/C(=O)[C@@H](OC(C)=O)[C@H](OC(C)=O)C/C=C/2` [Compound 24], the IC50 at 72 h in data set [1] (HeLa cervical epithelium cells), in data set [5] (setting [10]), in data set [7] (A-549 lung carcinoma cells) and in data set [9] (HCT-116 colon carcinoma cells) was above 10 µM each time. The CC50 at 48 h in data set [6] (setting [11]) turned out to be 3.2 µM. For the same compound, the IC50 in the data set on Leishmania donovani is 12.1 µM; in the data set on Plasmodium falciparum, above 30.7 µM.

For the compound `COc1cc(O)c2c(c1)/C=C/C[C@H]1OC(C)(C)O[C@H]1C(=O)/C=C/C[C@H](C)OC2=O` [Compound 25], the IC50 at 72 h in data set [1], in [3], in data set [5], in data set [7], in data set [8] and in [9] was above 10 µM throughout. Also, the “Trypanosoma cruzi IC50” value in the data set on Trypanosoma cruzi was “I”. For the same compound, the half-inhibitory concentration (IC50) at 48 h in [4] was above 10 µM. In addition, the results for the IC50 in the data set with Leishmania donovani and in the data set on Plasmodium falciparum were above 15.7 µM and above 30.7 µM, respectively.

On to `COc1cc(O)c2c(c1)C=CCC1OC(C)(C)OC1C(=O)C=CCC(C)OC2=O` (stereo not drawn) [Compound 26], for which the 50% inhibitory concentration (IC50) at 72 h in data set [1] was 4.02 µM; in data set [3], 7.22 µM; in data set [5], 4.81 µM; in [7], above 10 µM; in [8], above 10 µM; in data set [9] it was 9.16 µM. Further, the results for the IC50 (in data set [2]; in the data set with Leishmania donovani; in the data set with Plasmodium falciparum) were below 10 µM, 1.24 µM and 8.95 µM, respectively. The compound further had an IC50 at 48 h in [4] above 10 µM. For the same compound, the CC50 at 48 h in [6] was below 1 µM.

With `COc1cc(O)c2c(c1)/C=C/C[C@H](OC(C)=O)[C@H](OC(C)=O)C(=O)/C=C\C[C@H](C)OC2=O` [Compound 27], the IC50 at 72 h in [1] (HeLa cervical epithelium cells) is 3.85 µM; in data set [5] (setting [10]) it was 5.9 µM; in [7] (A-549 lung carcinoma cells), 7.3 µM; in data set [9] (HCT-116 colon carcinoma cells), 2.83 µM. The IC50 is below 10 µM in data set [2], 3.14 µM in the data set on Leishmania donovani and above 30.7 µM in the data set with Plasmodium falciparum. This compound also registered a CC50 at 48 h in data set [6] (setting [11]) below 1 µM.

As a reminder, the IC50 is the point on the concentration scale where inhibition reaches its midpoint. As a reminder, the CC50 is the concentration that lowers cell viability or growth by half. Higher therefore signals better tolerance by the cells.

These data come from PMC5603512, “Discovery, Semisynthesis, Antiparasitic and Cytotoxic Evaluation of 14-Membered Resorcylic Acid Lactones and Their Derivatives” (Scientific Reports, 2017).
